Measurements published in patent US4876245A, “Fluorine-containing macrolide compounds and their use” (Daikin Industries Ltd., priority 1986, dated 1989).
≈ marks a conversion by molar mass, not a printed value.

How the values were obtained:
Assay type in all cases: cell-based
Streptococcus faecalis = assay: antimicrobial activity, agar streak method (MIC), aerobic gram-positive; settings: Enterococcus faecalis
Streptococcus pyogenes = assay: as above
Streptococcus pneumoniae = assay: as above
Bacillus natto = assay: as above; settings: Bacillus subtilis
Staphylococcus aureus = assay: as above
Bacillus subtilis = assay: as above
Micrococcus luteus = assay: as above
[1] = test system: Corynebacterium diphtheriae; assay: as above
Escherichia coli = assay: antimicrobial activity, agar streak method (MIC), aerobic gram-negative
Hemophilus influenzae = assay: as above; settings: Haemophilus influenzae
Proteus vulgaris = assay: as above
Pseudomonas aeruginosa = assay: as above
Salmonella typhi = assay: as above; settings: Salmonella enterica
Shigella sonnei = assay: as above
Text: The antimicrobial activities of 8,9-difluoroerythromycin 6,9-epoxide (Example 1), 8,9-difluoroerythromycin 6,9-epoxide 11,12-carbonate (Example 2) and 8,9-difluoroerythromycin 6,9-epoxide 11,12-sulfite (Example 4) are examined by an agar streak method and expressed in terms of minimal inhibitory concentrations (MIC, μg/ml) against the following bacteria.

Neisseria gonorrhoeae = assay: as above
Acholeplasma laidlawii = assay: as above
Mycoplasma homilis = assay: antimicrobial activity, agar streak method (MIC)
Bacterioides fragilis = assay: antimicrobial activity, agar streak method (MIC), anaerobic
[2] = test system: Fusobacterium necrophorum; assay: as above
Clostridium perfringens = assay: microbe, parasite or virus in culture

Structure (SMILES)	MIC (Streptococcus faecalis) [µg/mL]	MIC (Streptococcus pyogenes) [µg/mL]	MIC (Streptococcus pneumoniae) [µg/mL]	MIC (Bacillus natto) [µg/mL]	MIC (Staphylococcus aureus) [µg/mL]	MIC (Bacillus subtilis) [µg/mL]	MIC (Micrococcus luteus) [µg/mL]	MIC [1] [µg/mL]	MIC (Escherichia coli) [µg/mL]	MIC (Hemophilus influenzae) [µg/mL]	MIC (Proteus vulgaris) [µg/mL]	MIC (Pseudomonas aeruginosa) [µg/mL]	MIC (Salmonella typhi) [µg/mL]	MIC (Shigella sonnei) [µg/mL]	MIC (Neisseria gonorrhoeae) [µg/mL]	MIC (Acholeplasma laidlawii) [µg/mL]	MIC (Mycoplasma homilis) [µg/mL]	MIC (Bacterioides fragilis) [µg/mL]	MIC [2] [µg/mL]	MIC (Clostridium perfringens) [µg/mL]
CC[C@H]1OC(=O)[C@H](C)[C@@H](O[C@H]2C[C@@](C)(OC)[C@@H](O)[C@H](C)O2)[C@H](C)[C@@H](O[C@@H]2O[C@H](C)C[C@H](N(C)C)[C@H]2O)[C@@]2(C)CC(C)(F)C(F)(O2)[C@H](C)[C@H]2OS(=O)O[C@@]21C (stereo partly drawn) [Example 4, 8,9-difluoroerythromycin A 6,9-epoxide 11,12-sulfite]	0.625 (≈ 0.781 µM)	0.011 (≈ 0.0138 µM)	0.013 (≈ 0.0163 µM)	0.078 (≈ 0.0975 µM)	0.156 (≈ 0.195 µM)	0.049 (≈ 0.0613 µM)	0.02 (≈ 0.025 µM)	0.022 (≈ 0.0275 µM)	7.8 (≈ 9.75 µM)	7 (≈ 8.75 µM)	26 (≈ 32.5 µM)	26 (≈ 32.5 µM)	13.2 (≈ 16.5 µM)	12.5 (≈ 15.6 µM)	0.052 (≈ 0.065 µM)	0.2 (≈ 0.25 µM)	25 (≈ 31.3 µM)	0.84 (≈ 1.05 µM)	8 (≈ 10 µM)	0.3 (≈ 0.375 µM)
CC[C@H]1OC(=O)[C@H](C)[C@@H](O[C@H]2C[C@@](C)(OC)[C@@H](O)[C@H](C)O2)[C@H](C)[C@@H](O[C@@H]2O[C@H](C)C[C@H](N(C)C)[C@H]2O)[C@@]2(C)CC(C)(F)C(F)(O2)[C@H](C)[C@@H](O)[C@]1(C)O (stereo partly drawn) [Example 1, 8,9-difluoroerythromycin A 6,9-epoxide]	1.25 (≈ 1.66 µM)	0.011 (≈ 0.0146 µM)	0.025 (≈ 0.0332 µM)	0.078 (≈ 0.103 µM)	0.156 (≈ 0.207 µM)	0.049 (≈ 0.065 µM)	0.006 (≈ 0.00796 µM)	0.011 (≈ 0.0146 µM)	31.2 (≈ 41.5 µM)	3.5 (≈ 4.64 µM)	26 (≈ 34.5 µM)	26 (≈ 34.5 µM)	13.2 (≈ 17.5 µM)	25 (≈ 33.2 µM)	0.052 (≈ 0.069 µM)	0.1 (≈ 0.133 µM)	25 (≈ 33.2 µM)	0.21 (≈ 0.279 µM)	2 (≈ 2.65 µM)	0.83 (≈ 1.1 µM)
CC[C@H]1OC(=O)[C@H](C)[C@@H](O[C@H]2C[C@@](C)(OC)[C@@H](O)[C@H](C)O2)[C@H](C)[C@@H](O[C@@H]2O[C@H](C)C[C@H](N(C)C)[C@H]2O)[C@@]2(C)CC(C)(F)C(F)(O2)[C@H](C)[C@H]2OC(=O)O[C@@]21C (stereo partly drawn) [Example 2, 8,9-difluoroerythromycin A 6,9-epoxide 11,12-carbonate]	0.625 (≈ 0.801 µM)	0.011 (≈ 0.0141 µM)	0.013 (≈ 0.0167 µM)	0.078 (≈ 0.1 µM)	0.156 (≈ 0.2 µM)	0.049 (≈ 0.0628 µM)	0.02 (≈ 0.0256 µM)	0.022 (≈ 0.0282 µM)	7.8 (≈ 10 µM)	7 (≈ 8.98 µM)	26 (≈ 33.3 µM)	26 (≈ 33.3 µM)	13.2 (≈ 16.9 µM)	12.5 (≈ 16 µM)	0.052 (≈ 0.0667 µM)	0.2 (≈ 0.256 µM)	25 (≈ 32.1 µM)	0.84 (≈ 1.08 µM)	8 (≈ 10.3 µM)	3.3 (≈ 4.23 µM)
